{"source": "ChEMBL document CHEMBL2016481", "about": "“Cytotoxic cytochalasins from the endozoic fungus Phoma sp. of the giant jellyfish Nemopilema nomurai” (Bioorg Med Chem Lett, 2012)", "note": "Active and inactive are the calls of the source. No cut-off for these calls is given here.", "data": [{"test_system": "XF498", "assay": "Cytotoxicity against human XF498 cells after 48 hrs by SRB assay", "assay_type": "functional, cell-based", "conditions": "XF498, 48 h", "units": {"IC50": "µM"}, "values": [{"molecule": "CC1=C(C)[C@H]2[C@H](Cc3ccccc3)NC(=O)[C@]23OC(=O)/C=C/[C@H](O)CCC[C@@H](C)C/C=C/[C@H]3[C@@H]1O", "IC50": 12.3}, {"molecule": "C=C1[C@@H](C)[C@H]2[C@H](Cc3ccccc3)NC(=O)[C@]23OC(=O)/C=C/[C@H](O)CCC[C@@H](C)C/C=C/[C@H]3[C@@H]1O", "note": "[CYTOCHALASIN B]", "IC50": 2.36}, {"molecule": "COc1cccc2c1C(=O)c1c(O)c3c(c(O)c1C2=O)C[C@@](O)(C(=O)CO)C[C@@H]3O[C@H]1C[C@H](N)[C@H](O)[C@H](C)O1", "note": "[DOXORUBICIN]", "IC50": 0.015}]}, {"test_system": "SK-OV-3", "assay": "Cytotoxicity against human SKOV3 cells after 48 hrs by SRB assay", "assay_type": "functional, cell-based", "conditions": "SK-OV-3, 48 h", "units": {"IC50": "µM"}, "values": [{"molecule": "CC1=C[C@@H]2/C=C/C[C@H](C)CCC[C@@H](O)/C=C/C(=O)[C@]23C(=O)N[C@@H](Cc2ccccc2)[C@@H]3[C@@H]1C", "note": "[DEOXAPHOMIN C]", "IC50": 5.48}, {"molecule": "CC1=C(C)[C@H]2[C@H](Cc3ccccc3)NC(=O)[C@]23OC(=O)/C=C/[C@H](O)CCC[C@@H](C)C/C=C/[C@H]3[C@@H]1O", "IC50": 4.51}, {"molecule": "CC1=C(C)[C@H]2[C@H](Cc3ccccc3)NC(=O)[C@]23C(=O)/C=C/[C@H](O)CCC[C@@H](C)C/C=C/[C@H]3[C@@H]1O", "note": "[DEOXAPHOMIN B]", "IC50": 13.9}, {"molecule": "C=C1[C@@H](C)[C@H]2[C@H](Cc3ccccc3)NC(=O)[C@]23OC(=O)/C=C/[C@H](O)CCC[C@@H](C)C/C=C/[C@H]3[C@@H]1O", "note": "[CYTOCHALASIN B]", "IC50": 0.46}, {"molecule": "C[C@H]1C/C=C/[C@H]2[C@@H]3O[C@]3(C)[C@@H](C)[C@H]3[C@H](Cc4ccccc4)NC(=O)[C@]32OC(=O)/C=C/CCCC1", "IC50": 4.19}, {"molecule": "COc1cccc2c1C(=O)c1c(O)c3c(c(O)c1C2=O)C[C@@](O)(C(=O)CO)C[C@@H]3O[C@H]1C[C@H](N)[C@H](O)[C@H](C)O1", "note": "[DOXORUBICIN]", "IC50": 0.002}]}, {"test_system": "A549", "assay": "Cytotoxicity against human A549 cells after 48 hrs by SRB assay", "assay_type": "functional, cell-based", "conditions": "A549, 48 h", "units": {"IC50": "µM"}, "values": [{"molecule": "CC1=C[C@@H]2/C=C/C[C@H](C)CCC[C@@H](O)/C=C/C(=O)[C@]23C(=O)N[C@@H](Cc2ccccc2)[C@@H]3[C@@H]1C", "note": "[DEOXAPHOMIN C]", "IC50": 8.58}, {"molecule": "CC1=C(C)[C@H]2[C@H](Cc3ccccc3)NC(=O)[C@]23OC(=O)/C=C/[C@H](O)CCC[C@@H](C)C/C=C/[C@H]3[C@@H]1O", "IC50": 5.99}, {"molecule": "CC1=C(C)[C@H]2[C@H](Cc3ccccc3)NC(=O)[C@]23C(=O)/C=C/[C@H](O)CCC[C@@H](C)C/C=C/[C@H]3[C@@H]1O", "note": "[DEOXAPHOMIN B]", "IC50": 23.2}, {"molecule": "C=C1[C@@H](C)[C@H]2[C@H](Cc3ccccc3)NC(=O)[C@]23OC(=O)/C=C/[C@H](O)CCC[C@@H](C)C/C=C/[C@H]3[C@@H]1O", "note": "[CYTOCHALASIN B]", "IC50": 2.13}, {"molecule": "C[C@H]1C/C=C/[C@H]2[C@@H]3O[C@]3(C)[C@@H](C)[C@H]3[C@H](Cc4ccccc4)NC(=O)[C@]32OC(=O)/C=C/CCCC1", "IC50": 12.4}]}, {"test_system": "HeLa", "assay": "Induction of mitochondrial apoptosis in human HeLa cells", "assay_type": "functional, cell-based", "conditions": "not given", "values": [{"molecule": "C=C1[C@@H](C)[C@H]2[C@H](Cc3ccccc3)NC(=O)[C@]23OC(=O)/C=C/[C@H](O)CCC[C@@H](C)C/C=C/[C@H]3[C@@H]1O", "note": "[CYTOCHALASIN B]", "Activity": "Active"}]}, {"test_system": "SK-MEL-2", "assay": "Cytotoxicity against human SK-MEL-2 cells after 48 hrs by SRB assay", "assay_type": "functional, cell-based", "conditions": "SK-MEL-2, 48 h", "units": {"IC50": "µM"}, "values": [{"molecule": "CC1=C[C@@H]2/C=C/C[C@H](C)CCC[C@@H](O)/C=C/C(=O)[C@]23C(=O)N[C@@H](Cc2ccccc2)[C@@H]3[C@@H]1C", "note": "[DEOXAPHOMIN C]", "IC50": 6.66}, {"molecule": "CC1=C(C)[C@H]2[C@H](Cc3ccccc3)NC(=O)[C@]23OC(=O)/C=C/[C@H](O)CCC[C@@H](C)C/C=C/[C@H]3[C@@H]1O", "IC50": 5.28}, {"molecule": "CC1=C(C)[C@H]2[C@H](Cc3ccccc3)NC(=O)[C@]23C(=O)/C=C/[C@H](O)CCC[C@@H](C)C/C=C/[C@H]3[C@@H]1O", "note": "[DEOXAPHOMIN B]", "IC50": 12.4}, {"molecule": "C=C1[C@@H](C)[C@H]2[C@H](Cc3ccccc3)NC(=O)[C@]23OC(=O)/C=C/[C@H](O)CCC[C@@H](C)C/C=C/[C@H]3[C@@H]1O", "note": "[CYTOCHALASIN B]", "IC50": 0.67}, {"molecule": "C[C@H]1C/C=C/[C@H]2[C@@H]3O[C@]3(C)[C@@H](C)[C@H]3[C@H](Cc4ccccc4)NC(=O)[C@]32OC(=O)/C=C/CCCC1", "IC50": 8.35}, {"molecule": "COc1cccc2c1C(=O)c1c(O)c3c(c(O)c1C2=O)C[C@@](O)(C(=O)CO)C[C@@H]3O[C@H]1C[C@H](N)[C@H](O)[C@H](C)O1", "note": "[DOXORUBICIN]", "IC50": 0.002}]}, {"test_system": "HeLa", "assay": "Cytotoxicity against human HeLa cells after 48 hrs by SRB assay", "assay_type": "functional, cell-based", "conditions": "not given", "units": {"IC50": "µM"}, "values": [{"molecule": "C=C1[C@@H](C)[C@H]2[C@H](Cc3ccccc3)NC(=O)[C@]23OC(=O)/C=C/[C@H](O)CCC[C@@H](C)C/C=C/[C@H]3[C@@H]1O", "note": "[CYTOCHALASIN B]", "IC50": 7.9, "inhibition": "Dose-dependent effect"}]}, {"test_system": "HCT-15", "assay": "Cytotoxicity against human HCT15 cells after 48 hrs by SRB assay", "assay_type": "functional, cell-based", "conditions": "HCT-15, 48 h", "units": {"IC50": "µM"}, "values": [{"molecule": "CC1=C[C@@H]2/C=C/C[C@H](C)CCC[C@@H](O)/C=C/C(=O)[C@]23C(=O)N[C@@H](Cc2ccccc2)[C@@H]3[C@@H]1C", "note": "[DEOXAPHOMIN C]", "IC50": 8.43}, {"molecule": "CC1=C(C)[C@H]2[C@H](Cc3ccccc3)NC(=O)[C@]23OC(=O)/C=C/[C@H](O)CCC[C@@H](C)C/C=C/[C@H]3[C@@H]1O", "IC50": 5.76}, {"molecule": "CC1=C(C)[C@H]2[C@H](Cc3ccccc3)NC(=O)[C@]23C(=O)/C=C/[C@H](O)CCC[C@@H](C)C/C=C/[C@H]3[C@@H]1O", "note": "[DEOXAPHOMIN B]", "IC50": 29.3}, {"molecule": "C=C1[C@@H](C)[C@H]2[C@H](Cc3ccccc3)NC(=O)[C@]23OC(=O)/C=C/[C@H](O)CCC[C@@H](C)C/C=C/[C@H]3[C@@H]1O", "note": "[CYTOCHALASIN B]", "IC50": 1.94}, {"molecule": "C[C@H]1C/C=C/[C@H]2[C@@H]3O[C@]3(C)[C@@H](C)[C@H]3[C@H](Cc4ccccc4)NC(=O)[C@]32OC(=O)/C=C/CCCC1", "IC50": 3.91}, {"molecule": "COc1cccc2c1C(=O)c1c(O)c3c(c(O)c1C2=O)C[C@@](O)(C(=O)CO)C[C@@H]3O[C@H]1C[C@H](N)[C@H](O)[C@H](C)O1", "note": "[DOXORUBICIN]", "IC50": 0.035}]}]}
